Data published in PMC6325638 (Clinics in liver disease, 2017).
Read-outs that look alike come from different tables or passages of the source.

Columns and labels:
[1] = test system: zebrafish larvae
[2] = test system: cultured rat hepatocytes; assay: ROS induction and death in cultured hepatocytes; type: cell-based; conditions: 96-well plates, oxyethidium fluorescence
[3] = test system: zebrafish larvae; conditions: in vivo
[4] = test system: 3D multicellular microphysiological systems (MPS) of the human liver; conditions: 3D multicellular microfluidic human liver model; cited from earlier work
[5] = 72 hpf zebrafish larvae, 0.66 μM
[6] = 72 hpf zebrafish larvae, 6.6 μM
[7] = 72 hpf zebrafish larvae, 200 μM
[8] = 72 hpf zebrafish larvae, 0.07 μM
[9] = 72 hpf zebrafish larvae, 0.2 μM

Row | Compound | Live/dead (translucent = live, opaque = dead) [1, 5] | Live/dead (translucent = live, opaque = dead) ([1]; 72 hpf zebrafish larvae, 2 μM) | Live/dead (translucent = live, opaque = dead) [1, 6] | Live/dead (translucent = live, opaque = dead) ([1]; 72 hpf zebrafish larvae, 20 μM) | Live/dead (translucent = live, opaque = dead) ([1]; 72 hpf zebrafish larvae, 66 μM) | Live/dead (translucent = live, opaque = dead) [1, 7] | Live/dead (translucent = live, opaque = dead) [1, 8] | Visual toxicity (bent tail, distended peritoneum, edema, pericardial congestion) [1, 8] | Live/dead (translucent = live, opaque = dead) [1, 9] | Visual toxicity (bent tail, distended peritoneum, edema, pericardial congestion) [1, 9] | Visual toxicity (bent tail, distended peritoneum, edema, pericardial congestion) [1, 5] | Visual toxicity (bent tail, distended peritoneum, edema, pericardial congestion) ([1]; 72 hpf zebrafish larvae, 2 μM) | Visual toxicity (bent tail, distended peritoneum, edema, pericardial congestion) [1, 6] | Visual toxicity (bent tail, distended peritoneum, edema, pericardial congestion) ([1]; 72 hpf zebrafish larvae, 20 μM) | further results
1 | CCCCc1oc2ccccc2c1C(=O)c1cc(I)c(OCCN(CC)CC)c(I)c1 [Amiodarone] | 4/0 | 4/0 | 4/0 | 4/0 | 0/4 | 0/4 |  |  |  |  |  |  |  |  | 
2 | N#CC(C#N)=NNc1cccc(Cl)c1 [CCCP, Carbonyl cyandide m-chorophenyl hydrazone] | 4/0 | 4/0 | 4/0 |  |  |  | 4/0 | 2/4 | 4/0 | 4/4 | 3/4 | 3/4 | 2/4 | 0/1 | 
3 | Cn1c(=O)c2c(ncn2C)n(C)c1=O [Caffeine] |  |  |  |  |  |  |  |  |  |  |  |  |  |  | Live/dead (translucent = live, opaque = dead) ([1]; 72 hpf zebrafish larvae, 3 μM): 4/0; Live/dead (translucent = live, opaque = dead) ([1]; 72 hpf zebrafish larvae, 10 μM): 4/0; Live/dead (translucent = live, opaque = dead) ([1]; 72 hpf zebrafish larvae, 30 μM): 4/0; Live/dead (translucent = live, opaque = dead) ([1]; 72 hpf zebrafish larvae, 100 μM): 4/0; Live/dead (translucent = live, opaque = dead) ([1]; 72 hpf zebrafish larvae, 300 μM): 4/0; Live/dead (translucent = live, opaque = dead) ([1]; 72 hpf zebrafish larvae, 1000 μM): 4/0
4 | CC1=CC(=O)c2ccccc2C1=O [Menadione] | 4/0 | 4/0 | 4/0 | 0/4 | 0/4 | 0/4 |  |  |  |  |  |  |  |  | Visual toxicity (bent tail, distended peritoneum, edema, pericardial congestion) ([1]; zebrafish, in vivo, 0.66 μM): 0/4; Visual toxicity (bent tail, distended peritoneum, edema, pericardial congestion) ([1]; zebrafish, in vivo, 2 μM): 2/4; Visual toxicity (bent tail, distended peritoneum, edema, pericardial congestion) ([1]; zebrafish, in vivo, 6.6 μM): 1/4; ROS induction and death in cultured hepatocytes [2]: ROS induction and death in cultured hepatocytes; Generation of ROS in zebrafish [3]: time-dependent and dose-dependent generation of ROS
5 | C=C(C)[C@H]1Cc2c(ccc3c2O[C@@H]2COc4cc(OC)c(OC)cc4[C@@H]2C3=O)O1 [Rotenone] | 4/0 | 4/0 |  | 1/4 |  |  | 4/0 | 2/4 | 4/0 | 3/4 | 2/4 | 1/4 | 0/3 | 1/1 | 
6 | CN(Cc1cnc2nc(N)nc(N)c2n1)c1ccc(C(=O)N[C@@H](CCC(=O)O)C(=O)O)cc1 [methotrexate] |  |  |  |  |  |  |  |  |  |  |  |  |  |  | Chronic drug effect in human liver MPS [4]: induction of fibrosis
